Test results reported in BindingDB's records for doi:10.1021/jm00055a007 (Abbott Laboratories, 1993).

Biological target: Gonadotropin-releasing hormone receptor (Rattus norvegicus) (UniProt P30969)
Sequence (P30969 whole entry, looked up): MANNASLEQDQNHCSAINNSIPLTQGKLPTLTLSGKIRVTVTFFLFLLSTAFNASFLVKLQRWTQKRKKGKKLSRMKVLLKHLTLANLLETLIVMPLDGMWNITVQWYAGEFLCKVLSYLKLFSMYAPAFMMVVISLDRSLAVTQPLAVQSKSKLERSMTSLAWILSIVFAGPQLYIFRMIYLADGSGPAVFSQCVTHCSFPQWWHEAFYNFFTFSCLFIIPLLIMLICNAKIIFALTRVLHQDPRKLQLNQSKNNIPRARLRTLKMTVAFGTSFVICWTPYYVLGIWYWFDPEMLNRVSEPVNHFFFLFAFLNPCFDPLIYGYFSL

Structure (SMILES)	Ki [nM]
CC(C)C[C@H](NC(=O)[C@@H](Cc1ccc2ccccc2c1)NC(=O)[C@H](Cc1ccc(O)cc1)NC(=O)[C@H](CO)NC(=O)[C@H](Cc1c[nH]c2ccccc12)NC(=O)[C@H](Cc1c[nH]cn1)NC(=O)[C@@H]1CCC(=O)N1)C(=O)N[C@@H](CCCN=C(N)N)C(=O)N1CCC[C@H]1C(=O)N(C)CC(N)=O [nafarelin 10SarNH2]	0.03
CC(C)C[C@H](NC(=O)[C@@H](Cc1ccc2ccccc2c1)NC(=O)[C@H](Cc1ccc(O)cc1)NC(=O)[C@H](CO)NC(=O)[C@H](Cc1cccc2ccccc12)NC(=O)[C@H](Cc1cnc[nH]1)NC(=O)[C@@H]1CCC(=O)N1)C(=O)N[C@@H](CCCN=C(N)N)C(=O)N1CCC[C@H]1C(=O)NCC(N)=O [nafarelin 31Nal]	0.03
CC(C)C[C@H](NC(=O)[C@@H](Cc1ccc2ccccc2c1)NC(=O)[C@H](Cc1ccc(O)cc1)NC(=O)[C@H](CO)NC(=O)[C@H](Cc1c[nH]c2ccccc12)NC(=O)[C@H](Cc1c[nH]cn1)NC(=O)[C@@H]1CCC(=O)N1)C(=O)N[C@@H](CCCNC(=N)N)C(=O)N1CCC[C@H]1C(=O)NCC(N)=O [nafarelin]	0.01
